The values that follow come from US20060228754A1 (priority 1998, published 2006).

Assay [1] concerns the target T1, cholera toxin B subunit (Vibrio cholerae serotype O1, UniProt P01556). Format: binding.
The target in assay [2] is T1, cholera toxin B subunit. Particulars: cited from earlier work.
The next assay concerns the target T2, L-selectin (Homo sapiens, UniProt P14151).
T2 sequence (P14151 39-372): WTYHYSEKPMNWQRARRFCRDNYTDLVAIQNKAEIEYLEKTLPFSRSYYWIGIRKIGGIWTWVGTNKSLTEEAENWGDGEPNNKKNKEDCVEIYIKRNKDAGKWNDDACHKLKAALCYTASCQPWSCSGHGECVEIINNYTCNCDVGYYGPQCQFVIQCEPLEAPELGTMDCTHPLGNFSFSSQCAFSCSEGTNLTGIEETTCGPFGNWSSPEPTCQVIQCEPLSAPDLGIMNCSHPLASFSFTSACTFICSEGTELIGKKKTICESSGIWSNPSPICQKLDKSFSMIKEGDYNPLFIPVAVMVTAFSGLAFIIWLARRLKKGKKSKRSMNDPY
Particulars: cited from earlier work.

For the next assay, the target named is T3, human α-thrombin (Homo sapiens, UniProt P00734).
T3 construct: screened against immobilized human α-thrombin; purchased Sigma Chemical Co
Particulars: affinity label; cited from earlier work.

T1 sequence (P01556 22-124 limits assumed): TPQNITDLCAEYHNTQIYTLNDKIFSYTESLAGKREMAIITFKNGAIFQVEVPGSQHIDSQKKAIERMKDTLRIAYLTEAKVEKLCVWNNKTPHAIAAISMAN

For orientation: Kd means the concentration at which binding is half-saturated. Regarding `CC(=O)N[C@H]1[C@H](O[C@@H]2[C@H](O[C@]3(C(=O)O)C[C@H](O)[C@@H](NC(C)=O)[C@H]([C@H](O)[C@H](O)CO)O3)[C@@H](O)[C@H](O[C@H]3[C@H](O)[C@@H](O)[C@H](O)O[C@@H]3CO)O[C@@H]2CO)O[C@H](CO)[C@H](O)[C@@H]1O[C@@H]1O[C@H](CO)[C@H](O)[C@H](O)[C@H]1O` [compound 7, GM1 oligosaccharide], the break through volume at cholera toxin B subunit [1] was ~300 µL. In addition, on cholera toxin B subunit [2], the Kd is ~100 nM. In the case of `COC(=O)CCCCCCCCOC1OC(COC2OC(CO)C(O)C(O)C2O)C(O)C(OC2OC(CO)C(O)C(O)C2O)C1O` (stereo not drawn) [compound 3, αMan(1-3)[αMan(1-6)]βMan-OGr], the “break through (in words)” value at cholera toxin B subunit [1] is “broke through in the void volume”. In the case of `O=P(O)(O)O[C@H]1[C@H](OP(=O)(O)O)[C@@H](OP(=O)(O)O)[C@H](OP(=O)(O)O)[C@@H](OP(=O)(O)O)[C@H]1OP(=O)(O)O` [phytic acid], the Kd on L-selectin was 1000 nM.

On to `CC(=O)NC1C(O)CC(OCCOC2OC(CO)C(O)C(OC3OC(CO)C(O)C(O)C3O)C2NC(C)=O)(C(=O)O)OC1C(O)C(O)CO` (stereo not drawn) [compound 8, βGal(1-3)βGalNAc(1-)-OCH2CH2O-(-2)αNeu5Ac], for which the break through time entry on cholera toxin B subunit [1] was “about 11 min”. Take fPR-chloromethyl ketone: the Kd on human α-thrombin is ~50 nM.
